Test results as given in patent US12233087B2, “Palladium hyaluronic acid particles and methods of managing cancer or angiogenic conditions” (Emory University, priority 2018, dated 2025).
Like-named read-outs stand apart in the source and are kept apart here.

Experiments:
[1] = target: N-myristoyltransferase 1 (NMT1) (Homo sapiens, UniProt P30419); conditions: reported in the literature; cited from earlier work
[2] = test system: LM36R human melanoma cells; assay: LM36R vemurafenib-resistant melanoma xenograft tumor growth in nude mice; assay type: in vivo, athymic Nu/Nu nude male mice; conditions: 5 mg of drug/kg per injection, bi-weekly tail vein injections, 4 weeks, n=5 per group; p-value 0.048 at week 4
Procedure: Nude male mice were inoculated with LM36R (5.0×10^5 cells), a human cell line of melanoma that is resistant to vemurafenib, and then treated with HANPs over the course of four weeks.
Vemurafenib-resistant LM36R human melanoma cells were inoculated (5.0×10^5 cells/mouse) into the right flank of athymic Nu/Nu nude male mice (Crl:NU-Foxn1^nu strain code 088)) n=5 per group, and progression of tumor was recorded using the volume model of length×(width)×0.52. Mice were split into four groups consisting of a control (empty HANP), free Tris DBA-Pd, HANP with Tris DBA-Pd, and HANP with Tris DBA-Pd and aIGF1R antibody. Free Tris DBA-Pd was first dissolved in DMSO and then mixed with Kolliphor EL™. At last, the mixture was diluted by H2O before injection at concentration of 1 mg/mL of DBA. The ratio of DMSO, Kolliphor EL™ and H2O was controlled as 1:2:7 (v/v). The treatments were administered through bi-weekly tail vein injections over the course of 4 weeks (5 mg of drug/kg per injection). Tumor samples were analyzed for CD44 (hyaluronate receptor) expression by immunohistochemistry.

LM36R xenograft tumor = assay: Gene array / whole-transcriptome expression analysis of treated tumors; assay type: in vivo, human
Procedure: Gene array was performed on all tumors. […] By varying the delivery process of a single drug, one might be able to prevent resistance.
RNA Extraction and QC: RNA was extracted using the Qiagen miRNEasy™ kit with on column DNAse treatment. Tissue was lysed and homogenized in Qiazol™ with a rotor-stator probe homogenizer for 40 seconds or until fully disrupted (1 ml Qiazol™ per 100 mg of tissue). RNA was eluted in 50 ul nuclease free water. One microliter was used to determine OD (optical density) values on a Nanodrop 1000. One microliter was used to assess sample profiles on the Agilent 2100 using the RNA 6000 Nano assay. Total RNA (250 ng) was amplified and labeled using the ThermoFisher Scientific Illuina™ TotalPrep™ RNA Amplification kit. Labeled cRNA was hybridized to Illumina HT12™ bead array. Image acquisition and data extraction were performed.

[3] = Dispersion of free vs HANP-loaded Tris DBA-Pd in water, FBS and cell culture media; assay type: physicochemical
Procedure: Hyaluronic Acid (HA)-5β-cholanic acid conjugate was synthesized by linking the carboxyl group of HA with the amino group on 5β-cholanic acid in the presence of EDC and NHS (FIG. 1). Hyaluronic Acid nanoparticles/Tris-DBA palladium were prepared. Water-insoluble Tris DBA-Pd was physically encapsulated into the hydrophobic cavities by a high-pressure homogenizer. This allowed for the dispersion of Tris DBA-Pd under physiological conditions. After freeze-drying, 40 mg of HANPs were dispersed in 8 mL of distilled water and 10 mg of Tris DBA-Pd was dissolved in 2 mL dimethyl sulfoxide (DMSO). The Tris DBA-Pd solution was slowly added into the HANP in high pressure homogenizer and homogenized for 5 min. Finally, the resulting mixture was dialyzed for 4 hours against an excess amount of distilled water to remove unloaded drugs and organic solvent, followed by lyophilization.
To verify the encapsulation of Tris DBA-Pd, the size changes were compared before and after loading.

[4] = general statement, water, cited from earlier work
melanoma = conditions: Clin Cancer Res. 2008, 14:5743-5748; cited from earlier work
[5] = at 25° C.; cited from earlier work
IGF1R = assay: Immunohistochemistry of tumor xenografts for IGF1R; assay type: in vivo, human; conditions: IHC, LM36R xenograft
Procedure: Immunohistochemistry was performed to qualitatively assess expression of target genes. […] To assess the impact of our treatments on IGF1R expression, IHC was used to stain the tumor xenografts with antibodies against IGF1R.

Chain of N-myristoyltransferase 1 (NMT1) (P30419 whole entry, species assumed): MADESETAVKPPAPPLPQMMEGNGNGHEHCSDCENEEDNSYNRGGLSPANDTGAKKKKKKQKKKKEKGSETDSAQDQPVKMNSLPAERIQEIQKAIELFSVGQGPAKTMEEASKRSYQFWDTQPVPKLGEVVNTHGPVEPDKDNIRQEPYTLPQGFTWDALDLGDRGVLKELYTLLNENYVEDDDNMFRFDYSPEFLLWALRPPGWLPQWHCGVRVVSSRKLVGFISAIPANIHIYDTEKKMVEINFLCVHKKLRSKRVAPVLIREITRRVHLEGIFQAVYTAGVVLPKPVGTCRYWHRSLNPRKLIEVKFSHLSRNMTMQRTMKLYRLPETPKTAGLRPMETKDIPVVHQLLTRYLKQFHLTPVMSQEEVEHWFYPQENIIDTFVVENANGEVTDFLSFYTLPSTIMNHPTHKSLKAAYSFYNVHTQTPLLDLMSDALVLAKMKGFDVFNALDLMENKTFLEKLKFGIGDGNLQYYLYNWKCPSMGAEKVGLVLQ

## O=C(/C=C/c1ccccc1)/C=C/c1ccccc1.O=C(/C=C/c1ccccc1)/C=C/c1ccccc1.O=C(/C=C/c1ccccc1)/C=C/c1ccccc1.[Pd].[Pd] [free Tris DBA-Pd, Tris(dibenzylideneacetone)dipalladium]
[1]
  activity against NMT1: activity against the enzyme N-myristoyltransferase 1
[2]
  inhibition of growth of LM36R tumors: showed efficacy
LM36R xenograft tumor
  SCG2 (secretogranin 2) expression: downregulated
[3]
  behaviour in water, FBS, and cell culture media (precipitation / dispersion): immediately precipitated
[4]; listed as Tris (dibenzylideneacetone) dipalladium
  solubility: poor solubility
[4]; listed as Tris DBA-Pd
  solubility: Water-insoluble
melanoma
  effect on melanoma growth: effective against melanoma growth

## CCCCCCCC [octane]
[5]
  percent solubility in water by weight: 0.63×10^−4 % w/w

## Tris DBA-Pd HANPs coupled with anti-IGF1R antibodies: Tris DBA-Pd HANP with anti-IGF1R monoclonal antibodies (Dalotuzumab) conjugated onto the surface
IGF1R
  intensity of IGF1R staining: decreased the intensity of IGF1R staining more so than the other groups
